US20220322667A1, “MICROBIOCIDAL USE” (DSM IP ASSETS B.V., priority 2019, published 2022)

Tests used:
Experiment in all cases: Antimicrobial challenge test in analogy to NF EN ISO 11930
Type in all cases: cell-based
[1] = test system: Candida albicans
Description: (§1) The antimicrobial efficacy was assessed in analogy to the regulatory challenge test method (NF EN IS011930). Thus, mixtures of the respective active(s) with physiological serum with 0.85 wt.-% NaCl in the concentrations as outlined below are prepared under sterile conditions. Controls were also prepared under sterile conditions. The control as well as the mixtures were then deposed in 96-deep well plates (1.6 ml/well). The wells were contaminated with the respective bacterial or the fungal strains at 2.5*10^5 to 5.6*10^5 cfu/ml for the bacteria and 1*10^4 to 2.5*10^4 cfu/ml for the fungi to obtain the initial contamination as outlined below. After the contamination, each well was thoroughly mixed to ensure a homogeneous distribution of microbes. Then each plate was incubated at 22° C. for 24 h. The counting of the (remaining) population is carried out 24 h after contamination. Then, the average log reduction is calculated [−log 10{(value inoculum)/(value sample)}] which is represented in tables 1-5.

[2] = test system: Aspergillus brasiliensis; conditions: 0.3 wt.-% DBO, 24 h at 22° C.
Description: as §1, with “The wells were contaminated with the respective bacterial or the fungal strains at 2.5*10^5 to 5.6*10^5 cfu/ml for the bacteria and 1*10^4 to 2.5*10^4 cfu/ml for the fungi to obtain the initial contamination as outlined below.” left out

[3] = test system: Staphylococcus aureus; conditions: 0.3 wt.-% HAP, 24 h
Description: as §1

[4] = test system: Escherichia coli; conditions: 0.2 wt.-% Sodium Benzoate, 24 h
Description: as §1

`c1ccc2oc(-c3ccc(-c4nc5ccccc5o4)cc3)nc2c1` [DBO, 1,4-di(benzoxazol-2′-yl)benzene] was tested, and the Log reduction ([1]; 0.3 wt.-% DBO, 24 h at 22° C.) was −0.51, the “24 h colony count” value ([1]; 0.3 wt.-% DBO, 24 h at 22° C., inoculum 32000 cfu/ml) was 10000 cfu/ml and the Log reduction [2] was −2.05. The “24 h colony count” value ([2]; inoculum 45000 cfu/ml) was 400 cfu/ml.
For `CC(=O)c1ccc(O)cc1` [HAP, 1-(4-hydroxyphenyl)-ethanone], the Log reduction [3] was −1.16 and the “Staphylococcus aureus colony count” value ([3]; 550000 cfu/ml at 0 h) was 70000 cfu/ml.
For `OCCCO` [PDO, 1,3-propanediol], the Log reduction ([1]; 1.0 wt.-% PDO, 24 h) was −0.24 and the “Candida albicans colony count” value ([1]; 1.0 wt.-% PDO, 24 h, 70000 cfu/ml at 0 h) was 40000 cfu/ml.
In the case of `O=C([O-])c1ccccc1.[Na+]` [Sodium Benzoate, sodium benzoate], the Log reduction [4] is reported as “+0.40” and the “Escherichia coli colony count” value ([4]; 400000 cfu/ml at 0 h) is reported as 1000000 cfu/ml.
